How the values were obtained:
[1] = tested on: macrophages in co-culture with fibroblasts; assay: Fibroblast-macrophage coculture with wound exudate (FACS, ELISA); type: cell-based, human; conditions: wound exudate #78; for percentage of live cells in the FACS CD45-gate (macrophages): FIG. 17 A; for macrophage M2 marker CD206: FIG. 17 B; for proinflammatory cytokine IL-1α induced by wound exudate: FIG. 17 C
Method: CD14^+ monocytes, isolated from PBMC of healthy donors by magnetic bead separation were incubated either alone or in the presence of primary human dermal fibroblasts (CellNTec) or fibroblast-derived matrices (FDM). FDM had been generated from primary human dermal fibroblasts by a 3-week incubation with the growth supplements vitamin C or insulin and EGF (vitamin C: 2-phospho-L-ascorbic acid trisodium salt, 100 μg/ml; human EGF, 5 ng/ml; human insulin, 5 μg/ml). Alternatively, fibroblast monolayer cultures can be used as well. After 4 days to a week to allow for macrophage differentiation in the presence or absence of M-CSF (25 ng/ml), the cultures were stimulated overnight with graded concentrations of test compounds in the absence or presence of various dilutions of sterile-filtered WE. IFN-g (50 ng/ml), LPS (100 ng/ml) and IL-4 (25 ng/ml) or combinations thereof served as controls for M1 and M2 macrophage induction. For negative control samples, medium was added instead of specific stimuli. WE were added to the culture medium for overnight stimulation at dilutions ranging from 1:25 to 1:100.
Supernatants were harvested and frozen for cytokine determination by ELISA, and cells were harvested and subjected to FACS analysis, gating on the monocyte population. Geometric means or mean fluorescence intensities (MFI) were used to quantify surface marker expression.
ELISA: CXCL10 and IL-23p19 for M1 macrophages and CCL22 and CCL18 as M2 macrophage markers, IL-1alpha, IL-1beta and TNF-alpha as pro-inflammatory markers indicative of an M1 phenotype.
Cells were harvested and resuspended in FACS buffer (PBS containing 2% FCS). Unspecific antibody binding was prevented by incubation with human Trustain FCR blocking solution (Biolegend, #422302) on ice for 10 minutes. The following fluorchrome-conjugated antibodies from eBioscience (now ThermoFisher Scientific) were used to detect specific surface markers by staining on ice for 30 minutes: CD38-PerCPeFluor710 (#46-0388-42), CD197-APC (#17-1979-42), CD206-AF488 (#53-2069-42), CD209-PerCP Cy5.5 (#45-2099-42). Co-staining with CD45 eFluor (#506 69-0459-42) was used to distinguish macrophages from primary human fibroblasts when analyzed from co-cultures. After washing cells with FACS buffer, they were fixed with 1% paraformaldehyde in PBS and stored at 4° C. in the dark until data were acquired on a Gallios flow cytometer from Beckman Coulter and analyzed with the Kaluza analysis software 1.3.

[2] = tested on: primary human dermal fibroblasts (HDF); assay: Fibroblast-derived matrix (FDM) formation assay (3D) with wound exudate; type: cell-based; conditions: for 3D fibroblast culture (FDM formation), effect of PARP inhibitors: FIG. 7, WE from patient #78
Method: HDF cells were seeded at 5000 cells/well on day −3 into 96-well tissue culture plates (1250 cells/well for 384-well plates), which had been pre-coated for 1 hour at 37° C. with 0.2% gelatin solution (Sigma). When the cells reached confluence (=day 0), a matrix promoting supplement (vitamin C: 2-phospho-L-ascorbic acid trisodium salt, 100 μg/ml; Sigma) was added together with test samples containing PDGF-BB, TGF-ß1 or graded concentrations of compounds −/+WE as described for the HDF proliferation assay. After 4 days, medium was replaced by fresh vitamin C—and stimulus—as well as compound-containing medium, maintaining the conditions initiated on day 0. TGF-ß1 and PDGF-BB were included as positive controls to promote FDM formation and cell growth, respectively. After a total incubation time of 8 days, FDM production was measured in fixed cultures via SRB staining and evaluated as described above. In some cases, the experiment was stopped and evaluated already on day 4.
Low molecular weight compounds (see list in Table 1) were dissolved in DMSO (Bioreagent for cell culture, Sigma) at 10 mM or 100 mM and diluted at least 1:1000 in medium for cellular assays (final DMSO concentration ≤0.1%).
Cells were incubated with compounds for 72 hours in proliferation assays and up to 8 days for FDM assay (refreshed after 4 days). When compounds were tested for their effect on WE stimulation, the incubation of cells with compounds was started and ended simultaneously with WE-incubation.

[3] = tested on: IL-1ß secretion by primary human dermal fibroblasts; assay: IL-1ß secretion in the HDF proliferation assay with wound exudate (ELISA); type: cell-based; conditions: FIG. 20
Method: At the end of the 72-hour incubation period, supernatants were removed for the determination of IL-1ß, and the cells were fixed with 4% paraformaldehyde (Morphisto) for 15 minutes at room temperature and washed 3 times with PBS. A control plate was fixed after the overnight adherence of the cells (day 1) to determine the starting cell number.
IL-1ß levels were determined with a commercial ELISA kit. The amount of IL-1ß contained in the wound exudate added to the cells was subtracted from the total IL-ß in the supernatants in order to determine the cytokine secreted by the cells.

[4] = tested on: wound exudate-induced pig wounds; assay: Porcine model of delayed wound healing induced by human wound exudates; type: in vivo; conditions: veliparib 10 mM, talazoparib 1 mM
Excerpt: The pig is regarded as the species with the highest correlation to man in skin anatomy and physiology. Pig wounds tend to heal by a combination of granulation tissue formation and contraction, similar to human wounds, and porcine wound healing studies show a high concordance with human studies. We developed a chronically inflamed porcine wound model. Acute pig wounds were stimulated by a combination of human chronic wound fluids and the toll-like receptors 7 and 8 (TLR7,8) agonist resiquimod (R848).
Female domestic white pigs at the age of 10-12 weeks and a body weight of approximately 12 kg were sedated with 20 mg Ketamin/2 mg Xylacin i.m. followed by inhalation anesthesia via Isofluran. Immediately after induction of anesthesia, a fentanyl transdermal patch (50 μg/h) was applied to control postsurgical pain. The fentanyl patch was replaced daily for the first 3 days after surgery and afterwards only when signs of pain were apparent. Before wounding, the back hair of the animals was clipped and the skin was cleaned with Braunol and disinfected with Skinsept. Then a total of 24 full-thickness excisional wounds per animal were applied using a 6 mm disposable biopsy punch. Immediately after wounding 50 μl of a 0.05% R848 gel was applied topically to the wounds which were covered with dressing (Mölnlycke Health Care AB, Sweden). 6 hours later, the wounds were treated with 3% HPMC (hydroxypropyl methylcellulose)-gellified human wound exudates or human serum as controls. Wound exudates had been harvested from negative pressure wound therapy systems used to treat patients diagnosed with chronic ulcers. Induction of wound inflammation by R848 and wound exudate was carried out for a total of 5 consecutive days.
From day 6 to day 10, veliparib and talazoparib at 10 mM and 1 mM, respectively, were dissolved in vehicle (50% propylene glycol/47.5% water/0.5% Tween 80/2.0% HPMC), applied to the wounds once daily and covered with dressing. Until day 12, wounds and surrounding skin were clinically examined once daily, upon dressing change, and observed changes were scored on a scale from 0-3. The following criteria were used:
The total achievable score (non-healing) is 19. Healing is associated with low scores.

[5] = FIG. 4, 3D fibroblast culture with WE
[6] = FIG. 18, induced by WE #91, topical once daily day 6-10
[7] = FIG. 19, induced by WE #43, day 6-10

With `C[C@]1(c2nc3c(C(N)=O)cccc3[nH]2)CCCN1` [Veliparib, 2-((2R)-2-methylpyrrolidin-2-yl)-1H-benzimidazole-4-carboxamide] the “percentage of live cells in the FACS CD45-gate (macrophages)” value [1] was “dose-dependently increased”, the “macrophage M2 marker CD206” value [1] was “dose-dependently increased” and the “proinflammatory cytokine IL-1α induced by wound exudate” value [1] was “reduced”. For the same compound, the “formation of fibroblast-derived matrix, optically evaluated by microscopy” value (“formation … by microscopy” for short) [2, 5] was ““cleaned up” WE-induced fibroblast matrix inhibition”, the “formation of fibroblast-derived matrix, combination with dexamethasone” value ([2]; FIG. 4, 3D fibroblast culture with WE, microscopy) was “superior to each substance alone” and the “formation of fibroblast-derived matrix, veliparib and glucocorticoids combined” value ([2]; FIG. 5, WE of patient #78 (diabetes, immunosuppression after kidney transplantation)) was “enhances the effect of glucocorticoids”. For the same compound, the “formation of fibroblast-derived matrix, veliparib and glucocorticoids combined” value ([2]; FIG. 6, WE of patient #49 (non-diabetic, non-immunosuppressed)) was “could be enhanced with glucocorticoids, but not vice versa”, the “3D fibroblast culture (FDM formation), effect of PARP inhibitors” value (from here on “3D fibroblast culture … of PARP inhibitors”) [2] was “strong and consistent positive effect” and the “wound exudate-induced IL-1ß secretion” value [3] was “reducing IL-1ß secretion”. The “delayed pig wound healing (time course, clinical score)” value (shortened to “delayed pig wound healing”) [4, 6] was “improve wound healing” and the “delayed pig wound healing” value [4, 7] was “only a minor effect”.
For `Cn1ncnc1[C@H]1c2n[nH]c(=O)c3cc(F)cc(c23)N[C@@H]1c1ccc(F)cc1` [Talazoparib], the “percentage of live cells in the FACS CD45-gate (macrophages)” value [1] was “dose-dependently increased”, the “macrophage M2 marker CD206” value [1] was “dose-dependently increased” and the “proinflammatory cytokine IL-1α induced by wound exudate” value [1] was “reduced”. The “formation … by microscopy” value [2, 5] was ““cleaned up” WE-induced fibroblast matrix inhibition”, the “formation … by microscopy” value ([2]; FIG. 4, 3D fibroblast culture with WE, listed as talazoparib) was “particularly strong and beneficial” and the “3D fibroblast culture … of PARP inhibitors” value [2] was “most active of the PARP inhibitors tested in 3D culture”. For the same compound, the “3D fibroblast culture … of PARP inhibitors” value ([2]; listed as talazoparib) was “strong and consistent positive effect”, the “wound exudate-induced IL-1ß secretion” value [3] was “reducing IL-1ß secretion” and the “delayed pig wound healing” value [4, 6] was “improve wound healing”. The “delayed pig wound healing” value [4, 7] was “improves wound healing”.
